# Results published in article PMC11374673, “Discovery of isoquinoline sulfonamides as allosteric gyrase inhibitors with activity against fluoroquinolone-resistant bacteria” (Nature Chemistry, 2024).
# “And” between values parts separate entries of the source, which are not always exact repeats. Equal entries are not always repeated. Where two headings read alike, the source gives them in different places.
# Tests used:
# [1] = system: E. coli ATCC 25922; test: MIC by broth microdilution; type: cell-based
# Protocol: MIC was determined by broth microdilution. Single-colony cultures were grown to exponential phase (OD600 of 0.5) aerobically at 37 °C. In case of strains from the Keio collection, 50 µg ml^−1 kanamycin was supplemented to the media to ascertain a homogeneous population. The bacterial suspensions were diluted 100-fold in CAMHB and 50 µl was added to a twofold serial dilution series of test compounds (50 µl per well) in polypropylene 96-well microtitre plates to reach a volume of 100 µl. The plates were sealed with breathable membranes and incubated overnight at 37 °C with constant shaking (600 r.p.m.).
# [2] = system: HepG2; test: Cytotoxicity assay (MTT); type: cell-based, human; conditions: for IC50: MTT, 24 h
# [3] = system: HEK293T; test: Cytotoxicity assay (MTT); type: cell-based, human; conditions: for cytotoxicity: HEK293T and HepG2; for MTT data (raw readout): HEK293T; for IC50: 24 h, MTT
# Outline: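 HEK293T cells, maintained at 37 °C and 7% CO2 in Dulbecco’s modified Eagle medium with GlutaMax, antibiotics and serum, were plated in clear 96-well plates in 100 µl medium containing 1% fetal bovine serum and left 24 h to attach. After 24 h compound exposure, MTT (0.40 mg ml^−1) was added for 2 h. Formazan was dissolved in 100 µl DMSO and absorbance measured at 570 nm. Background-corrected IC50 values came from variable-slope non-linear fits.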
# [4] = system: E. coli W3110; test: Checkerboard assay with PMBN;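 on checkerboard plate reading, Average values: OD600 read after 20 h incubation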
# [5] = Escherichia coli, ATCC25922; read-out: MIC E. coli ATCC 25922
# [6] = HepG2, 0.023 uM, experiment n = 1, technical triplicates
# [7] = HepG2, 0.023 uM, experiment n = 2, technical triplicates
# [8] = HepG2, 0.068 uM, experiment n = 1, technical triplicates
# [9] = HepG2, 0.068 uM, experiment n = 2, technical triplicates
# [10] = HepG2, 0.21 uM, experiment n = 1, technical triplicates
# [11] = HepG2, 0.21 uM, experiment n = 2, technical triplicates
# [12] = HepG2, 0.62 uM, experiment n = 1, technical triplicates
# [13] = HepG2, 0.62 uM, experiment n = 2, technical triplicates
# [14] = HepG2, 1.85 uM, experiment n = 1, technical triplicates
# [15] = HepG2, 1.85 uM, experiment n = 2, technical triplicates
# [16] = 0.023 uM, experiment n = 1, technical triplicates
# [17] = 0.023 uM, experiment n = 2, technical triplicates
# [18] = 0.068 uM, experiment n = 1, technical triplicates
# [19] = 0.068 uM, experiment n = 2, technical triplicates
# [20] = 0.21 uM, experiment n = 1, technical triplicates
# [21] = 0.21 uM, experiment n = 2, technical triplicates
# [22] = 0.62 uM, experiment n = 1, technical triplicates
# [23] = 0.62 uM, experiment n = 2, technical triplicates
# [24] = 1.85 uM, experiment n = 1, technical triplicates
# [25] = 1.85 uM, experiment n = 2, technical triplicates
compound,measurement,setting,value
O=S(=O)(NCCNCc1ccc(-c2ccc(F)nc2)cc1)c1cccc2cnccc12 [Compound 60],MIC,[1]; [5],12.5 µM
same,MTT data (raw readout),[2]; [6],0.514 and 0.522 and 0.506
same,MTT data (raw readout),[2]; [7],0.553 and 0.550 and 0.561
same,MTT data (raw readout),[2]; [8],0.526 and 0.514 and 0.522
same,MTT data (raw readout),[2]; [9],0.571 and 0.568 and 0.585
same,MTT data (raw readout),[2]; [10],0.544 and 0.520 and 0.508
same,MTT data (raw readout),[2]; [11],0.610 and 0.553 and 0.611
same,MTT data (raw readout),[2]; [12],0.525 and 0.501 and 0.502
same,MTT data (raw readout),[2]; [13],0.621 and 0.610 and 0.573
same,MTT data (raw readout),[2]; [14],0.546 and 0.544 and 0.528
same,MTT data (raw readout),[2]; [15],0.581 and 0.605
same,IC50,"[2]; Homo sapiens, HepG2, 24 h",> 100 µM
same,IC50,[2],> 50 µM
same,cytotoxicity,[3],lowest cytotoxicity
same,MTT data (raw readout),[3]; [16],0.733 and 0.692
same,MTT data (raw readout),[3]; [17],0.767 and 0.777 and 0.816
same,MTT data (raw readout),[3]; [18],0.746 and 0.796 and 0.737
same,MTT data (raw readout),[3]; [19],0.800 and 0.790 and 0.829
same,MTT data (raw readout),[3]; [20],0.734 and 0.766 and 0.710
same,MTT data (raw readout),[3]; [21],0.783 and 0.732 and 0.731
same,MTT data (raw readout),[3]; [22],0.735 and 0.740 and 0.733
same,MTT data (raw readout),[3]; [23],0.809 and 0.824 and 0.770
same,MTT data (raw readout),[3]; [24],0.725 and 0.718 and 0.739
same,MTT data (raw readout),[3]; [25],0.764 and 0.783 and 0.787
same,IC50,"[3]; Homo sapiens, HEK-293T",51 µM
same,IC50,[3],> 50 µM
"O=C(O)c1cn(C2CC2)c2cc(N3CCNCC3)c(F)cc2c1=O [CIP, ciprofloxacin]",MIC,"[1]; Escherichia coli, ATCC25922, read-out: MIC E. coli ATCC 25922",0.024 µM
same,"checkerboard plate reading, Average values",[4]; Ciprofloxacin 1.5625 nM + PMBN 1 µM,0.8906
same,"checkerboard plate reading, Average values",[4]; Ciprofloxacin 1.5625 nM + PMBN 2 µM,0.8911
same,"checkerboard plate reading, Average values",[4]; Ciprofloxacin 1.5625 nM + PMBN 4 µM,0.726
same,"checkerboard plate reading, Average values",[4]; Ciprofloxacin 1.5625 nM + PMBN 8 µM,0.6303
same,"checkerboard plate reading, Average values",[4]; Ciprofloxacin 3.125 nM + PMBN 0 µM,0.9278
same,"checkerboard plate reading, Average values",[4]; Ciprofloxacin 3.125 nM + PMBN 0.5 µM,0.8723
same,"checkerboard plate reading, Average values",[4]; Ciprofloxacin 3.125 nM + PMBN 1 µM,0.849
same,"checkerboard plate reading, Average values",[4]; Ciprofloxacin 3.125 nM + PMBN 2 µM,0.8236
same,"checkerboard plate reading, Average values",[4]; Ciprofloxacin 3.125 nM + PMBN 4 µM,0.7354
same,"checkerboard plate reading, Average values",[4]; Ciprofloxacin 3.125 nM + PMBN 8 µM,0.666
same,"checkerboard plate reading, Average values",[4]; Ciprofloxacin 3.125 nM + PMBN 16 µM,0.8076
same,"checkerboard plate reading, Average values",[4]; Ciprofloxacin 3.125 nM + PMBN 32 µM,0.5963
same,"checkerboard plate reading, Average values",[4]; Ciprofloxacin 6.25 nM + PMBN 0 µM,0.8608
same,"checkerboard plate reading, Average values",[4]; Ciprofloxacin 6.25 nM + PMBN 0.5 µM,0.801
same,"checkerboard plate reading, Average values",[4]; Ciprofloxacin 6.25 nM + PMBN 1 µM,0.7994
same,"checkerboard plate reading, Average values",[4]; Ciprofloxacin 6.25 nM + PMBN 2 µM,0.8003
same,"checkerboard plate reading, Average values",[4]; Ciprofloxacin 6.25 nM + PMBN 4 µM,0.7289
same,"checkerboard plate reading, Average values",[4]; Ciprofloxacin 6.25 nM + PMBN 8 µM,0.6534
same,"checkerboard plate reading, Average values",[4]; Ciprofloxacin 6.25 nM + PMBN 16 µM,0.5862
same,"checkerboard plate reading, Average values",[4]; Ciprofloxacin 6.25 nM + PMBN 32 µM,0.4866
same,"checkerboard plate reading, Average values",[4]; Ciprofloxacin 12.5 nM + PMBN 0 µM,0.8404
same,"checkerboard plate reading, Average values",[4]; Ciprofloxacin 12.5 nM + PMBN 0.5 µM,0.7355
same,"checkerboard plate reading, Average values",[4]; Ciprofloxacin 12.5 nM + PMBN 1 µM,0.7301
same,"checkerboard plate reading, Average values",[4]; Ciprofloxacin 12.5 nM + PMBN 2 µM,0.723
same,"checkerboard plate reading, Average values",[4]; Ciprofloxacin 12.5 nM + PMBN 4 µM,0.67
same,"checkerboard plate reading, Average values",[4]; Ciprofloxacin 12.5 nM + PMBN 8 µM,0.5682
same,"checkerboard plate reading, Average values",[4]; Ciprofloxacin 12.5 nM + PMBN 16 µM,0.6754
same,"checkerboard plate reading, Average values",[4]; Ciprofloxacin 12.5 nM + PMBN 32 µM,0.5017
same,"checkerboard plate reading, Average values",[4]; Ciprofloxacin 25 nM + PMBN 0 µM,0.4892
same,"checkerboard plate reading, Average values",[4]; Ciprofloxacin 25 nM + PMBN 0.5 µM,0.5201
same,"checkerboard plate reading, Average values",[4]; Ciprofloxacin 25 nM + PMBN 1 µM,0.4961
same,"checkerboard plate reading, Average values",[4]; Ciprofloxacin 25 nM + PMBN 2 µM,0.4386
same,"checkerboard plate reading, Average values",[4]; Ciprofloxacin 25 nM + PMBN 4 µM,0.4173
same,"checkerboard plate reading, Average values",[4]; Ciprofloxacin 25 nM + PMBN 8 µM,0.2541
same,"checkerboard plate reading, Average values",[4]; Ciprofloxacin 25 nM + PMBN 16 µM,0.196
same,"checkerboard plate reading, Average values",[4]; Ciprofloxacin 25 nM + PMBN 32 µM,0.2103
same,"checkerboard plate reading, Average values",[4]; Ciprofloxacin 50 nM + PMBN 0 µM,0.1991
same,"checkerboard plate reading, Average values",[4]; Ciprofloxacin 50 nM + PMBN 0.5 µM,0.2079
same,"checkerboard plate reading, Average values",[4]; Ciprofloxacin 50 nM + PMBN 1 µM,0.2136
same,"checkerboard plate reading, Average values",[4]; Ciprofloxacin 50 nM + PMBN 2 µM,0.1771
same,"checkerboard plate reading, Average values",[4]; Ciprofloxacin 50 nM + PMBN 4 µM,0.1678
same,"checkerboard plate reading, Average values",[4]; Ciprofloxacin 50 nM + PMBN 8 µM,0.1671
same,"checkerboard plate reading, Average values",[4]; Ciprofloxacin 50 nM + PMBN 16 µM,0.1685
same,"checkerboard plate reading, Average values",[4]; Ciprofloxacin 50 nM + PMBN 32 µM,0.1738
same,MIC,"[4]; Escherichia coli, W3110",0.05 µM
same,MIC E. coli + 8 μM PMBN,[4]; LPS disruption (pharmacological),0.024 µM
same,synergy with PMBN,[4]; checkerboard,does not have an effect and none
same,MSC,"[4]; checkerboard with PMBN, E. coli W3110",0.025 µM
O=S(=O)(NC[C@@H]1CC[C@H](c2ccc(-c3ccc(F)cc3)cc2)N1)c1cccc2cnccc12 [Compound 101],MIC,[1]; [5],3.1 µM
same,MTT data (raw readout),[2]; [6],0.470 and 0.394 and 0.364
same,MTT data (raw readout),[2]; [7],0.305 and 0.260 and 0.288
same,MTT data (raw readout),[2]; [8],0.452 and 0.420 and 0.368
same,MTT data (raw readout),[2]; [9],0.322 and 0.313 and 0.323
same,MTT data (raw readout),[2]; [10],0.390 and 0.419 and 0.407
same,MTT data (raw readout),[2]; [11],0.324 and 0.279 and 0.267
same,MTT data (raw readout),[2]; [12],0.368 and 0.340 and 0.370
same,MTT data (raw readout),[2]; [13],0.315 and 0.269 and 0.267
same,MTT data (raw readout),[2]; [14],0.439 and 0.392 and 0.378
same,MTT data (raw readout),[2]; [15],0.289 and 0.297 and 0.299
same,MTT data (raw readout),"[2]; HepG2, 5.6 uM, experiment n = 1, technical triplicates",0.403 and 0.384 and 0.371
same,MTT data (raw readout),"[2]; HepG2, 5.6 uM, experiment n = 2, technical triplicates",0.315 and 0.277 and 0.266
same,MTT data (raw readout),"[2]; HepG2, 16.7 uM, experiment n = 1, technical triplicates",0.208 and 0.211 and 0.189
same,MTT data (raw readout),"[2]; HepG2, 16.7 uM, experiment n = 2, technical triplicates",0.140 and 0.112 and 0.095
same,IC50,"[2]; Homo sapiens, HepG2, 24 h",13 µM
same,cytotoxicity,[3],substantial cytotoxicity
same,MTT data (raw readout),[3]; [16],1.467 and 1.369 and 1.336
same,MTT data (raw readout),[3]; [17],0.913 and 0.978 and 0.995
same,MTT data (raw readout),[3]; [18],1.354 and 1.258 and 1.005
same,MTT data (raw readout),[3]; [19],1.026 and 1.021 and 0.846
same,MTT data (raw readout),[3]; [20],1.223 and 1.254 and 1.173
same,MTT data (raw readout),[3]; [21],1.069 and 0.984 and 0.926
same,MTT data (raw readout),[3]; [22],1.112 and 0.937 and 0.942
same,MTT data (raw readout),[3]; [23],0.770 and 0.738 and 0.688
same,MTT data (raw readout),[3]; [24],0.725 and 0.641 and 0.684
same,MTT data (raw readout),[3]; [25],0.521 and 0.485 and 0.507
same,MTT data (raw readout),"[3]; 5.6 uM, experiment n = 1, technical triplicates",0.749 and 0.695 and 0.667
same,MTT data (raw readout),"[3]; 5.6 uM, experiment n = 2, technical triplicates",0.483 and 0.462 and 0.474
same,MTT data (raw readout),"[3]; 16.7 uM, experiment n = 1, technical triplicates",0.450 and 0.504 and 0.484
same,MTT data (raw readout),"[3]; 16.7 uM, experiment n = 2, technical triplicates",0.372 and 0.345
same,MTT data (raw readout),"[3]; 50 uM, experiment n = 2, technical triplicates",0.011 and 0.012
same,IC50,"[3]; Homo sapiens, HEK-293T",3.2 µM
